Read-outs that look alike come from different tables or passages of the source.

Broadly, the Kp is tissue or fluid exposure divided by exposure in the circulation.

Data set [1] in a line: Plasma and brain concentrations at 60 minutes post-dosing. In kind it is in vivo. The note with it: male, Sprague-Dawley, rat, ip, rats, 3 mg/kg i.p.; for Kp at 60 min: brain and plasma, n=5. Here is the method: (§1) Compound I of the present invention was compared to Compound II by testing the for effects on the duration of anesthesia induced by the combination of xylazine and ketamine in rats. Male Sprague-Dawley rats were anaesthetised with a combination of xylazine (10 mg/kg) and ketamine (10 mg/kg) administered in a single intramuscular injection in the back hindlimb. Fifteen minutes later, the drug to be tested or its vehicle was injected intraperitoneally (dosing volume=1 ml/kg) and the animals were placed in dorsal recumbence. The compounds were dissolved immediately before use in polyethylene glycol (M.W. 200). The return of the righting reflex (i.e. when the animal no longer remained on its back and turned itself spontaneously to the prone position) was used as an endpoint to determine the duration of anaesthesia.
(§2) At the end of the experiment, at 60 minutes post-dosing, plasma and brain samples were taken for drug concentration determination.
However, the distribution to the brain was very different for each compound.

The test system of data set [2] is duration of anesthesia induced by the combination of xylazine and ketamine in rats. Put plainly: Effect on duration of anesthesia induced by xylazine and ketamine. Type of data set: in vivo, Male Sprague-Dawley rats. The note with it: 3 mg/kg i.p.; for Duration of anesthesia (min), Compound treated group: n = 5, mean ± S.E.M., return of righting reflex as endpoint; for Effect on duration of anaesthesia (in words): n=5. Here is the method: as §1, §2

Setting [3] is: brain, n=5, read-out: Brain concentration.
[4] abbreviates: plasma, n=5, read-out: Plasma concentration.

Regarding `O=C(Nc1c(Cl)c[n+]([O-])cc1Cl)c1ccc(OC(F)F)c(OCC2CC2)c1` [Compound Formula I, N-(3,5-Dichloro-1-oxido-pyridin-4-yl)-4-difluoromethoxy-3-cyclopropylmethoxybenzamide], in data set [1], the Kp at 60 min turned out to be 0.0938. For the same compound, the concentration at 60 min in data set [1] (setting [3]) came to 410 ± 150 nM. Moreover, in data set [1] (setting [4]), the concentration at 60 min was determined as 4370 ± 1650 nM. Further, in data set [2], the “Inhibition % (of duration of anesthesia vs vehicle treated group)” value is 15.6%; the “Duration of anesthesia (min), Compound treated group” value came to 37.40 ± 7.83 min; the “Effect on duration of anaesthesia (in words)” value is on record as “did not significantly modify the duration of anaesthesia”.
Take `O=C(Nc1c(Cl)cncc1Cl)c1ccc(OC(F)F)c(OCC2CC2)c1` [Compound Formula II, N-(3,5-Dichloropyridin-4-yl)-4-difluoromethoxy-3-cyclopropylmethoxybenzamide]: in data set [1], the Kp at 60 min amounted to 0.75. Moreover, the concentration at 60 min in data set [1] (setting [3]) turned out to be 150 ± 50 nM. The concentration at 60 min in data set [1] (setting [4]) was 200 ± 80 nM. In data set [2], the “Inhibition % (of duration of anesthesia vs vehicle treated group)” value is given as 54.7%; the “Duration of anesthesia (min), Compound treated group” value is reported as 19.20 ± 4.68 min; the “Effect on duration of anaesthesia (in words)” value is recorded as “significant reduction in the duration of the anaesthesia”.

The record behind these values is patent US6448274B2, “Fluoroalkoxy-substituted benzamide dichloropyridinyl N-oxide PDE4 inhibitor” (Merck Frosst Canada & Co., priority 2000, dated 2002).
